In patent publication US9181575B2 (priority 2008, dated 2015):

Test system: Legionella pneumophila
Type: cell-based
Conditions: after THPS 15 mg/L, 60 min; 0.1% pyruvate and/or 1% glutamic acid in BCYE

SMILES | ratio of number of culturable Legionella on supplemented medium to standard medium (BCYE)
N[C@@H](CCC(=O)O)C(=O)O [glutamic acid] | 0.2
CC(=O)C(=O)O [pyruvate] | 45
